We go through nine compounds from paper PMC6736568, “Discovery of Novel Anti-cryptosporidial Activities From Natural Products by in vitro High-Throughput Phenotypic Screening” (Frontiers in Microbiology, 2019).

The term inhibition denotes the change of the read-out against control, counted positive when it falls. By EC50 is commonly meant the concentration at which the effect is half-maximal. Higher therefore signals lower potency in that assay. As usually defined, the LD50 is the dose at which mortality reaches 50%.

Like-named read-outs stand apart in the source and are kept apart here.

Data set [1] concerns Cryptosporidium parvum. Kind of data set: Effect on different parasite developmental stages in vitro (qRT-PCR). The class given is cell-based. Conditions: cedrelone 1.0 μM, Deox B 7,4 2.0 μM, baicalein 3.3 μM, PRM 150 μM. As to the method: We selected three top hits derived from plants for evaluating their activity against various developmental stages of C. parvum. For evaluating the effect on the parasite invasion (i.e., 0–3 hpi treatment groups), host cell monolayers will be incubated with C. parvum oocysts (10^5 oocysts/well) in 96-well plates together with individual compounds at around EC80 concentrations. For evaluating the effect on various stages of intracellular parasites (i.e., 3–10 hpi, […], 22–44 hpi, and 3–44 hpi treatment groups), host cell monolayers were incubated with C. parvum oocysts (50,000 oocysts/well) for 3 h, followed by the removal of uninvaded parasites by a medium exchange. These time points roughly corresponded to the invasion into host cells (0–3 hpi), the development of first and some second generation of merogony (3–22 hpi) or second generation of merogony and gametogenesis (22–44 hpi). Individual compounds at EC80 final concentrations were added into wells at specified post-infection time points, and plates were incubated for specified durations of post-infection times. Cell lysates were prepared at the end of each treatment for qRT-PCR.
(§1) In all experiments, negative controls were treated with diluent (0.5% DMSO) for the same durations of corresponding drug treatment groups. All experiments include least three biological replicates for each compound in the in vitro drug treatment assay and two technical replicates for each biological replicate in the qRT-PCR assay.

Another data set has as its system HCT-8 cells. Kind of data set: In vitro cytotoxicity MTS assay on host cells. Format: cell-based, human. Conditions: 41 h. How it is done:
The plates were measured for absorbance at 490 nm in 15 min intervals in a SmartReader 96 microplate reader (Accuris, Edison, NJ, United States). Cytotoxicity of a compound was quantified by calculating the half maximal toxic concentration on host cells (TC50). An in vitro safety interval (SI) was calculated by determining the ratio between TC50 and EC50 values (i.e., SI = TC50/EC50).
For orientation: Tetrazolium dyes change colour on reduction, which living cells bring about.

The next data set is described as follows: in vitro. Conditions: for cytotoxicity at 41 h, 10 µM: human.
Data set [2] has as its system Cryptosporidium parvum. The data set can be described thus: qRT-PCR assay of the growth of C. parvum in vitro in HCT-8 host cells (primary and secondary screening, EC50). Format: cell-based. Conditions: Cryptosporidium parvum; for inhibition at 10 µM / inhibition at 3.3 µM: HCT-8; for inhibition at 10 µM: primary screening at 10 uM, read-out: Inhibition (%); for inhibition at 3.3 µM: secondary screening at 3.3 uM, read-out: % Inhibition (3.3 uM); for EC50: growth of C. parvum in vitro, HCT-8 host cells, 44 h infection. (In general: Quantitative PCR measures a nucleic acid by following its amplification.)

The subject of data set [3] is Cryptosporidium parvum. The data set can be described thus: Drug withdrawal assay (qRT-PCR at 44 hpi). The class given is cell-based. Conditions: assayed at 44 hpi, cedrelone 1.0 μM, Deox B 7,4 2.0 μM, baicalein 3.3 μM, PRM 150 μM. How it is done: For drug withdrawal assay, HCT-8 cells were cultured and inoculated with C. parvum oocysts (50,000 oocysts/well) for 3 h. After a medium exchange, individual compounds at EC80 final concentrations were added into wells. Compounds were removed at 22 hpi time point by a medium exchange, and infected cells were allowed to grow up to 44 hpi (3–22 hpi treatment groups). A full course of treatment for each compound was included as control (3–44 hpi treatment groups). Cell lysates were prepared at 44 hpi time point for qRT-PCR.
as §1

The conditions of data set [4]: mouse, ip; ref MicroSource NatProd Collection note; cited from earlier work.
The test system of data set [5] is cryptosporidial infection. Also on record: method as in Lemeteil et al., 1993. Conditions: ref Lemeteil et al., 1993; cited from earlier work.
The mark [6] stands for this setting: primary screening at 10 uM, treated vs control.

Regarding `COc1ccc2c(c1)OC[C@H](Cc1ccc(OC)c(O)c1)C2=O` [Deoxysappanone B 7,4′-dimethyl ether], the inhibition at 2 µM in the data set on Cryptosporidium parvum [1] (treatment 0-3 hpi (excystation and invasion)) was -5.5 ± 7.2%; in the data set on Cryptosporidium parvum [1] (treatment 3-10 hpi), 9.1 ± 10.4%; with Cryptosporidium parvum [1] (treatment 3-22 hpi, assayed at end of treatment), 18%; in the data set with Cryptosporidium parvum [1] (treatment 3-44 hpi (full course)), 67.2%; with Cryptosporidium parvum [1] (treatment 22-44 hpi), 22.9 ± 6.8%; with Cryptosporidium parvum [3] (full course 3-44 hpi, read-out: 3-44 hpi Inhibition), 73.8%. Further, in the data set on Cryptosporidium parvum [3] (treated 3-22 hpi, compound removed, read-out: 3-22 hpi Inhibition), the inhibition at 2 µM came out at 61.9%. This compound yielded a TC50 in the data set on HCT-8 cells (HCT-8 cells, MTS) of 64.9 µM. Also, in “in vitro”, the cytotoxicity at 41 h, 10 µM turned out to be 35.1%. For the same compound, the inhibition at 10 µM in the data set on Cryptosporidium parvum [2] turned out to be 91.3%. In the data set with Cryptosporidium parvum [2], the inhibition at 3.3 µM came out at 52%. Also, the EC50 with Cryptosporidium parvum [2] stood at 0.734 µM. Further, the “Hs18S ΔCT” value with HCT-8 host cells (Hs18S) (human, 41 h, 10 μM) came to 0.62.

`COc1ccc2c(c1)OCC(Cc1ccc(OC)c(OC(C)=O)c1)C2=O` (stereo not drawn) [Deoxysappanone B 7,3′-dimethyl ether acetate] displayed a TC50 in the data set on HCT-8 cells (HCT-8 cells, MTS) above 100 µM. In addition, the cytotoxicity at 41 h, 10 µM in “in vitro” was 15.5%. Further, in the data set on Cryptosporidium parvum [2], the inhibition at 10 µM turned out to be 87.4%, the inhibition at 3.3 µM was 71% and a half-maximal effect (EC50) was put at 1.19 µM. Moreover, the “Hs18S ΔCT” value with HCT-8 host cells (Hs18S) (human, 41 h, 10 μM) is given as 0.24.

Compound `CC(C)[C@@H]1NC(=O)[C@H](C)OC(=O)[C@@H](C(C)C)NC(=O)[C@@H](C(C)C)OC(=O)[C@H](C(C)C)NC(=O)[C@H](C)OC(=O)[C@@H](C(C)C)NC(=O)[C@@H](C(C)C)OC(=O)[C@H](C(C)C)NC(=O)[C@H](C)OC(=O)[C@@H](C(C)C)NC(=O)[C@@H](C(C)C)OC1=O` [Valinomycin, reference compound] registered a TC50 in the data set with HCT-8 cells (HCT-8 cells, MTS) above 50 µM. Moreover, the cytotoxicity at 10 µM in “in vitro” is -9.2%. Besides, in the data set on Cryptosporidium parvum [2], the inhibition at 10 µM came out at 92.3%, the inhibition at 3.3 µM is 87% and a half-maximal effect (EC50) was put at 0.122 µM. Also, the “Hs18S ΔCT” value with HCT-8 host cells (Hs18S) (setting [6]) was -0.13.

In the data set on HCT-8 cells (HCT-8 cells, MTS), `Cc1coc2c1C(=O)C(=O)c1c-2ccc2c1CCCC2(C)C` [Tanshinone IIA] gave a TC50 above 100 µM. For the same compound, in “in vitro”, the cytotoxicity at 10 µM worked out at 5.6%. Also, in the data set with Cryptosporidium parvum [2], the inhibition at 10 µM turned out to be 82.7%, the inhibition at 3.3 µM amounted to 63% and a half-maximal effect (EC50) was put at 0.964 µM. The “Hs18S ΔCT” value in the data set on HCT-8 host cells (Hs18S) (setting [6]) amounted to 0.08.

For `CC1(C)C(=O)C=C[C@]2(C)[C@H]3CC[C@@]4(C)[C@H](c5ccoc5)OC(=O)[C@H]5O[C@]54[C@]3(C)C(=O)C[C@@H]12` [Deacetoxy-7-oxogedunin], the TC50 in the data set on HCT-8 cells (HCT-8 cells, MTS) turned out to be 12.8 µM. In the data set “in vitro”, the cytotoxicity at 10 µM came out at 23.6%. Further, in the data set on Cryptosporidium parvum [2], the inhibition at 10 µM came to 88.7%, the inhibition at 3.3 µM was determined as 77% and the response was half-maximal at 1.94 µM (EC50). Besides, the “Hs18S ΔCT” value in the data set with HCT-8 host cells (Hs18S) (setting [6]) is recorded as 0.39.

Take `COC1=C[C@@H]2[C@@H]3Cc4ccc(OC)c(O)c4[C@]2(CCN3C)CC1=O` [SINOMENINE]: in “in vitro”, the cytotoxicity at 10 µM is -71.8%. The LD50 in data set [4] is recorded as 285 mg/kg. In addition, in the data set with Cryptosporidium parvum [2], the inhibition at 10 µM is -83.5%. The “Hs18S ΔCT” value in the data set with HCT-8 host cells (Hs18S) (setting [6]) is -0.78.

As for `CC(C)=CCCC1(C)C=Cc2c(O)c3c(c(CC=C(C)C)c2O1)OC12C(=CC4CC1C(C)(C)OC2(C/C=C(/C)C(=O)O)C4O)C3=O` (stereo not drawn) [Dihydrogambogic acid], the TC50 in the data set on HCT-8 cells (human) was determined as 6.31 µM. Besides, the cytotoxicity at 10 µM in “in vitro” is -52%. Further, in the data set on Cryptosporidium parvum [2], the inhibition at 10 µM was 97.7%, the inhibition at 3.3 µM was 57% and the EC50 was 1.67 µM. Besides, the “Hs18S ΔCT” value in the data set on HCT-8 host cells (Hs18S) (setting [6]) is recorded as -0.60.

Turning to `COC(=O)C[C@H]1C(C)(C)[C@@H](O)[C@@H]2CC3=C4C=C(OC)O[C@@H](c5ccoc5)[C@]4(C)CCC3[C@@]1(C)C2=O` (stereo partly drawn) [3-Deoxo-3beta-hydroxy-mexicanolide 16-enol ether], the TC50 with HCT-8 cells (HCT-8 cells, MTS) is above 100 µM. In the data set “in vitro”, the cytotoxicity at 41 h, 10 µM was -40.1%. In the data set with Cryptosporidium parvum [2], the inhibition at 10 µM turned out to be 90%, the inhibition at 3.3 µM worked out at 71% and the EC50 was determined as 3.94 µM. For the same compound, in the data set on HCT-8 host cells (Hs18S) (human, 41 h, 10 μM), the “Hs18S ΔCT” value was -0.49.

On to `COc1cccc2c1C(=O)c1c(O)c3c(c(O)c1C2=O)C[C@@](O)(C(C)=O)C[C@@H]3O[C@H]1C[C@H](N)[C@H](O)[C@H](C)O1` [Daunorubicin, reference compound], for which the “efficacy on cryptosporidial infection in rats” value in data set [5] is reported as “ineffective”. In the data set on HCT-8 cells (human), the TC50 is 42.6 µM. In the data set “in vitro”, the cytotoxicity at 41 h, 10 µM was found to be 49.5%. Also, in the data set on Cryptosporidium parvum [2], the inhibition at 10 µM is 76.8%, the inhibition at 3.3 µM was found to be 71% and it took 1.49 µM to reach a half-maximal effect (EC50). The “Hs18S ΔCT” value in the data set with HCT-8 host cells (Hs18S) (human, 41 h, 10 μM) turned out to be 0.99.
